# US9587225B2, “Low-molecular-compound for improving production, maintenance and proliferation of pluripotent stem cells, composition comprising the same, and culture method” (KOREA RESEARCH INSTITUTE OF BIOSCIENCE AND BIOTECHNOLOGY, priority 2012, dated 2017)
# Tests used:
# Type in all cases: cell-based
# human skin fibroblasts [1] = experiment: BrdU immunocytochemical analysis of proliferating cell population
# Experimental: Immunocytochemical analysis was performed using monoclonal antibody for bromodeoxyuridine (BrdU), and then percent BrdU positive cells are graphically shown. The values shown on the graph are mean values. The data are expressed as ±SD (n=3) (*P<0.05, by t-test).
# The left panel is a set of graphs showing the results of immunocytochemical analysis performed using monoclonal antibody for BrdU, and the right panel is a graph showing the results of measurement of percent BrdU positive cells. The values shown on the graph are mean values. The data are expressed as mean±SD (n=3).
# For immunostaining, cells were seeded on Matrigel-coated 4-well Lab-Tek chamber slides (Nunc, Naperville, Ill.) and cultured for 5 days under the indicated conditions. The cells were fixed in 4% paraformaldehyde at room temperature for 15 minutes, and then washed with PBS/0.2% BSA. Next, the cells were passed through PBS/0.2% BSA/0.1% Triton X-100 for 15 minutes, and then incubated with 4% normal donkey serum (Molecular Probes, Eugene, Oreg., USA) in PBS/0.2% BSA at room temperature for 1 hour. The cells were diluted with PBS/0.2% BSA, and then reacted with primary antibody at 4° C. for 2 hours. After washing, the cells were reacted with FITC- or Alexa594-conjugated secondary antibody (Invitrogen) in PBS/0.2% BSA at room temperature for 1 hour. The cells were counter-stained with 10 μg/ml DAPI. […]
# [2] = target: T1, DNA methyl transferase 1 (DNMT1) (Homo sapiens, UniProt P26358); experiment: DNMT1 activity during reprogramming; settings: 10 days after induction of reprogramming, compared to untreated control (OSKM alone) (FIG. 20)
# T1 construct: endogenous in cells; host or cells: human skin (foreskin) fibroblasts (hFF, ATCC CRL-2097) transduced with OSKM retrovirus
# T1 sequence (P26358 whole entry): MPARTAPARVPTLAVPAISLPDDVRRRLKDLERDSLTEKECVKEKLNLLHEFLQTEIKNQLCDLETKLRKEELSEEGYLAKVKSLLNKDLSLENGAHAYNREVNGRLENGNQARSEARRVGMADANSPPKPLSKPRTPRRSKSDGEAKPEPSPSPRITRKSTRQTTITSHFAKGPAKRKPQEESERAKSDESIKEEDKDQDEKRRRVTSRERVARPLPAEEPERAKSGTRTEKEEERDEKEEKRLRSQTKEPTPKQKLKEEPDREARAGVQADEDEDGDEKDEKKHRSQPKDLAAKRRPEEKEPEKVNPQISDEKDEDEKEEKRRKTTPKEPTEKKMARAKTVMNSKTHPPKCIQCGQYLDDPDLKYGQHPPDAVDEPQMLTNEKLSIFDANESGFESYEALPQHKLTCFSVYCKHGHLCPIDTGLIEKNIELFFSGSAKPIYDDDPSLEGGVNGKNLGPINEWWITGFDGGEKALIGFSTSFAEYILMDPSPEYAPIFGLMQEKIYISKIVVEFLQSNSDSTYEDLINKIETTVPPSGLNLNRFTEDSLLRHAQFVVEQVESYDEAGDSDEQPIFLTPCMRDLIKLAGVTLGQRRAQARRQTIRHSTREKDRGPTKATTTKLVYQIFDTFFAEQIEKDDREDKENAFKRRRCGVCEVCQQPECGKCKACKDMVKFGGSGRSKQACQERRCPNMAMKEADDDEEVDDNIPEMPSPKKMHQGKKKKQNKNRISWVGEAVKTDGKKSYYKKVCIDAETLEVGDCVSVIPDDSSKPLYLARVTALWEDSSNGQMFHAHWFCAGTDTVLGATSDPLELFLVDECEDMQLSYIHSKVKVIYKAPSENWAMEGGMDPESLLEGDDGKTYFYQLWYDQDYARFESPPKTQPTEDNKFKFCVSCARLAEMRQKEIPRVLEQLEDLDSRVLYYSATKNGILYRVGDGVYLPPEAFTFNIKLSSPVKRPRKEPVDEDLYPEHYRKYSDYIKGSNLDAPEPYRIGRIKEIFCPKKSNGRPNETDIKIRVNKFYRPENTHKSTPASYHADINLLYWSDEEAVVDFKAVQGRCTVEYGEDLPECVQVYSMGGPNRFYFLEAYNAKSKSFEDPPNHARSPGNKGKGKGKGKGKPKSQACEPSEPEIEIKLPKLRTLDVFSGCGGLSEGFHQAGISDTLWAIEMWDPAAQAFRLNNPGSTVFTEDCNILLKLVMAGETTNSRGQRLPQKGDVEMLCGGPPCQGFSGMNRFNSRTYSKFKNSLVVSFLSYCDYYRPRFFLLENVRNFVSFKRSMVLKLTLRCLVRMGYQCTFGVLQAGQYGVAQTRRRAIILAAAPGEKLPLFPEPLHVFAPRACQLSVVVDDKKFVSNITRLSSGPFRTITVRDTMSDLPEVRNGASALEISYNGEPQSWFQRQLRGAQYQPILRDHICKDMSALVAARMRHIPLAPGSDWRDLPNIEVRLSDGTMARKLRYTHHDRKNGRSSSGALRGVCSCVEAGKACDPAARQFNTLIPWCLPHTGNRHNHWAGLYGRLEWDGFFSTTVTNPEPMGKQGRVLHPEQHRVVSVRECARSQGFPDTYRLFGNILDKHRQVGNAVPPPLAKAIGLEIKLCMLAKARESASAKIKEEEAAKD
# Source text: For comparison, the activity of DNMT1 in the absence of RSC-133 was set at 100%.
# RSC133 regulates the activities of epigenetic regulators such as DNA methyltransferase (DNMT) and histone deacetylase (HDAC). At 10 days after induction of reprogramming by RSC133, the activity of DNMT1 was reduced by about 38% compared to that in an untreated control group (OSKM alone) (FIG. 20). Epigenetic chromatin remolding by DNA methylation and/or histone modification plays an important in a wide range of transcriptional regulation in the reprogramming process. […] The increased level of H3K9 histone acetylation (ace) is particularly associated with the restoration of pluripotency and reprogramming ability. It is known that DNA methylation by DNMT1 has a close connection with the change in chromatin status caused by HDAC activity.
# [3] = tested on: human skin fibroblasts (hFFs); experiment: Reprogramming of human skin fibroblasts, AP-positive colony count
# [4] = tested on: H9 human embryonic stem cells; experiment: Maintenance of undifferentiated state of hESC in unconditioned medium
# Experimental: It was observed that, when H9 human embryonic stem cells (hESs) were cultured in unconditioned medium (UM), the differentiation thereof was induced, but when the cells were cultured in UM containing RSC-133, the degree of induced differentiation was inhibited, and pluripotency was acquired again. The efficiency of acquisition of pluripotency was measured by calculating the number of colonies showing AP activity. The values shown on the graph are mean values. The data are expressed as mean±SD (n=3) (*P<0.01, **P<0.005, by t-test).
# Human skin fibroblasts (hFFs) were used as a negative control group. H3 and GAPDH proteins were used as internal controls.
# Human embryonic stem cell (hESC) H9 (NIH Code, WA09; WiCell Research Institute, Madison, Wis.) and reprogrammed stem cells (hiPSC) were generally cultured in hESC culture medium (composed of 80% DMEM/F12, 20% knockout serum replacement (KSR, Invitrogen, Carlsbad, Calif.), 1% non-essential amino acids (NEAR, Invitrogen), 1 mM L-glutamine (Invitrogen), 0.1 mM β-mercaptoethanol (Sigma, St. Louis, Mo.) and 6 ng/ml bFGF (basic fibroblast growth factor, Invitrogen)) on γ-irradiated MEFs (mouse embryonic fibroblasts). The cells were subcultured with 1 mg/ml collagenase IV (Invitrogen) at intervals of 5-6 days. Human newborn foreskin fibroblasts (hFF, ATCC, catalog number CRL-2097; American Type Culture Collection, Manassas, Va.) were cultured in DMEM containing 10% FBS (fetal bovine serum, Invitrogen), 1% non-essential amino acid, 1 mM L-glutamine and 0.1 mM β-mercaptoethanol.
# When human embryonic stem cells (H9) are cultured in unconditioned medium (UM), their differentiation is induced. […] As a positive control group, embryonic stem cells cultured for 6 days in MEF-conditioned medium (CM) effective for maintenance of an undifferentiated state were used. The efficiency of maintenance of an undifferentiated state and inhibition of differentiation was determined by measuring the number of colonies showing AP activity (the lower panel of FIG. 28). […]
# human skin fibroblasts [5] = experiment: MTT cytotoxicity assay; settings: concentration up to 50 μM, 72 hours after treatment (FIG. 9)
# Experimental: FIG. 9 is a graph showing the results of analyzing the effect of RSC-133 on the cytotoxicity of human skin fibroblasts. At 72 hours after treatment with various concentrations of RSC-133, cytotoxicity was measured by MTT (3-(4,5-dimethylthiazol-2-yl)-2,5-diphenyltetrazolium bromide (yellow tetrazole) assays. The values shown on the graph are mean values. The data are expressed as mean±SD (n=3).
structure (smiles),measurement,setting,value
"NC(=O)c1cccc(NC(=O)/C=C/c2c[nH]c3ccccc23)c1 [RSC-133, 3-[3-(1H-indol-3-yl)-acrylamido]-benzamide]","BrdU-positive cell population, reprogramming not induced","human skin fibroblasts [1]; OSKM-transfected human skin fibroblasts, reprogramming not induced (FIG. 14)",increased BrdU-positive cell population
same,BrdU-positive cell population during the reprogramming process,human skin fibroblasts [1]; during reprogramming (FIG. 13),increased BrdU-positive cell population
same,reduction of the activity of DNMT1,[2],about 38%
same,"substitution for reprogramming factor c-Myc, compound alone","[3]; RSC-133 alone, AP-positive colonies (FIG. 5)",did not show the substituting effect
same,"substitution for reprogramming factor c-Myc, in combination with sodium butyrate","[3]; RSC-133 in combination with sodium butyrate (NaB), compared to control group (FIG. 5)",substituted for c-Myc factor to increase the efficiency of reprogramming
same,"efficiency of reprogramming, treatment in the initial stage","[3]; initial stage (including 5 days after viral infection), compared to other periods of equal length (FIG. 10)",significantly increased
same,induced differentiation and pluripotency of hESC in unconditioned medium (AP-positive colonies),[4]; H9 cultured 6 days in UM supplemented with RSC-133 (FIG. 28),the degree of induced differentiation was inhibited and pluripotency was re-acquired
same,expression of Oct4 and H3K9ace (Western blot),[4]; H9 in UM containing RSC-133 vs CM (FIG. 29),at levels similar to those in the human embryonic stem cells cultured in CM
same,expression of pluripotency-specific markers Oct4 and Tra1-81 (immunostaining),[4]; H9 in UM supplemented with RSC-133 vs CM,expressed at levels similar to those of human embryonic stem cells cultured in CM
same,cytotoxicity (MTT),human skin fibroblasts [5],did not induce cytotoxicity
